Measured values reported in ChEMBL document CHEMBL3992523, “Potent Inhibition of Nitric Oxide-Releasing Bifendate Derivatives against Drug-Resistant K562/A02 Cells in Vitro and in Vivo” (J Med Chem, 2017).
Activity calls are given as the source filed them. No cut-off for these calls is given here.

How the values were obtained:
K562 [1] = experiment: Anti-proliferative activity against human K562 cells measured after 72 hrs by MTS assay; assay type: functional, cell-based; conditions: K562, 72 h
K562/A02 [2] = experiment: Anti-proliferative activity against P-gp overexpressing/drug resistant human K562/A02 cells measured after 72 hrs by MTS assay; assay type: functional, cell-based; conditions: K562/A02, 72 h
[3] = Resistant factor, ratio of IC50 for P-gp overexpressing/drug resistant human K562/A02 cells to IC50 for human K562 cells; assay type: functional
[4] = Drug metabolism in P-gp overexpressing/drug resistant human K562/A02 cells assessed as nitric oxide production at 100 uM measured at 240 mins by Griess assay; assay type: ADME, cell-based; conditions: k562/a02, 4 h
K562/A02 [5] = experiment: Anti-proliferative activity against P-gp overexpressing/drug resistant human K562/A02 cells at 150 uM in presence of hemoglobin measured after 24 hrs by MTS assay; assay type: functional, cell-based
[6] = Permeability in human Caco2 cells assessed as concentration ratio of basolateral to apical side at 100 uM measured at 5 mins post dose by HPLC analysis; assay type: ADME, cell-based; conditions: caco-2, 5 min
[7] = Permeability in human Caco2 cells assessed as concentration ratio of basolateral to apical side at 100 uM measured at 10 mins post dose by HPLC analysis; assay type: ADME, cell-based; conditions: caco-2, 10 min
Homo sapiens [8] = species on record: Homo sapiens; experiment: Inhibition of P-gp in human K562/A02 cells assessed as increase in intracellular rhodamine123 accumulation at 0.33 to 10 uM measured after 1 hr by flow cytometry; assay type: cell-based
K562 [9] = experiment: Effect on rhodamine123 accumulation in human K562 cells at 0.33 to 10 uM measured after 1 hr by flow cytometry; assay type: functional, cell-based
Homo sapiens [10] = species on record: Homo sapiens; experiment: Effect on P-gp ATPase activity in human K562/A02 cell membranes assessed as remaining ATP level by measuring relative light units at 200 uM in presence of MgATP measured after 40 mins by luminescence based P-gp-Glo assay
K562/A02 [11] = experiment: Antitumor activity against P-gp overexpressing/drug resistant human K562/A02 cells xenografted in BALB/c nude mouse assessed as reduction in tumor size at 4 mg/kg, iv administered every other day for 21 days measured post last dose; assay type: functional, organism-based
K562/A02 [12] = experiment: Antitumor activity against P-gp overexpressing/drug resistant human K562/A02 cells xenografted in BALB/c nude mouse assessed as reduction in tumor weight at 4 mg/kg, iv administered every other day for 21 days measured post last dose; assay type: functional, organism-based
K562/A02 [13] = experiment: Antitumor activity against P-gp overexpressing/drug resistant human K562/A02 cells xenografted in BALB/c nude mouse assessed as tumor growth inhibition at 4 mg/kg, iv administered every other day for 21 days measured post last dose relative to control; assay type: functional; conditions: 504 h, read-out: TGI
[14] = Toxicity in BALB/c nude mouse administered via ip for every 3 days of four injections; conditions: in vivo

COC(=O)c1cc(OC)c2c(c1-c1c(C(=O)OC3CCN(CC(=O)OC(C)(C)CCOc4no[n+]([O-])c4S(=O)(=O)c4ccccc4)CC3)cc(OC)c3c1OCO3)OCO2
IC50 (K562 [1]): 870 nM
IC50 (K562/A02 [2]): 910 nM
Ratio IC50 [3]: 1.1

COC(=O)c1cc(OC)c2c(c1-c1c(C(=O)O)cc(OC)c3c1OCO3)OCO2
IC50 (K562 [1]): 137000 nM
IC50 (K562/A02 [2]): 125000 nM
Ratio IC50 [3]: 0.9
Drug metabolism [4]: Metabolite_Notdetected
Activity (K562/A02 [5]): inactive

COC(=O)c1cc(OC)c2c(c1-c1c(C(=O)OC)cc(OC)c3c1OCO3)OCO2 [BIFENDATE]
IC50 (K562 [1]): > 200000 nM
IC50 (K562/A02 [2]): > 200000 nM

O=C(CN1CCC(OC(=O)c2ccccc2)CC1)OCCCCOc1nonc1S(=O)(=O)c1ccccc1
IC50 (K562 [1]): 4060 nM
IC50 (K562/A02 [2]): 6650 nM
Ratio IC50 [3]: 1.6

COC(=O)c1cc(OC)c2c(c1-c1c(C(=O)OCCN3CCN(CC(=O)OCCOc4no[n+]([O-])c4S(=O)(=O)c4ccccc4)CC3)cc(OC)c3c1OCO3)OCO2
IC50 (K562 [1]): 580 nM
IC50 (K562/A02 [2]): 2010 nM
Ratio IC50 [3]: 3.5

COC(=O)c1cc(OC)c2c(c1-c1c(C(=O)OCCN3CCN(CC(=O)OCCCOc4no[n+]([O-])c4S(=O)(=O)c4ccccc4)CC3)cc(OC)c3c1OCO3)OCO2
IC50 (K562 [1]): 750 nM
IC50 (K562/A02 [2]): 930 nM
Ratio IC50 [3]: 1.2
Drug metabolism [4]: Metabolite_Detected

COC(=O)c1cc(OC)c2c(c1-c1c(C(=O)OC3CCN(CC(=O)NCCOc4no[n+]([O-])c4S(=O)(=O)c4ccccc4)CC3)cc(OC)c3c1OCO3)OCO2
IC50 (K562 [1]): 1280 nM
IC50 (K562/A02 [2]): 3160 nM
Ratio IC50 [3]: 2.5
Drug metabolism [4]: Metabolite_Detected

O=C(CN1CCC(O)CC1)OCCCCOc1no[n+]([O-])c1S(=O)(=O)c1ccccc1
IC50 (K562 [1]): 2250 nM
IC50 (K562/A02 [2]): 4110 nM
Ratio IC50 [3]: 1.8
Ratio [6]: 0.02
Ratio [7]: 0.03

COC(=O)c1cc(OC)c2c(c1-c1c(C(=O)OCCN3CCN(CC(=O)OC(C)(C)CCOc4no[n+]([O-])c4S(=O)(=O)c4ccccc4)CC3)cc(OC)c3c1OCO3)OCO2
IC50 (K562 [1]): 860 nM
IC50 (K562/A02 [2]): 1510 nM
Ratio IC50 [3]: 1.8
Drug metabolism [4]: Metabolite_Detected

COC(=O)c1cc(OC)c2c(c1-c1c(C(=O)OCCN3CCN(CC(=O)OCCCCOc4no[n+]([O-])c4S(=O)(=O)c4ccccc4)CC3)cc(OC)c3c1OCO3)OCO2
IC50 (K562 [1]): 690 nM
IC50 (K562/A02 [2]): 1570 nM
Ratio IC50 [3]: 2.3

COc1ccc(CCN(C)CCCC(C#N)(c2ccc(OC)c(OC)c2)C(C)C)cc1OC (stereo not drawn)
inhibition (Homo sapiens [8]): Active
Activity (K562 [9]): inactive
Activity (Homo sapiens [10]): 179000 RLU

COC(=O)c1cc(OC)c2c(c1-c1c(C(=O)OC3CCN(CC(=O)OCCCOc4no[n+]([O-])c4S(=O)(=O)c4ccccc4)CC3)cc(OC)c3c1OCO3)OCO2
IC50 (K562 [1]): 800 nM
IC50 (K562/A02 [2]): 590 nM
Ratio IC50 [3]: 0.7

COC(=O)c1cc(OC)c2c(c1-c1c(C(=O)OCCN3CCN(CC(=O)OC(C)CCOc4no[n+]([O-])c4S(=O)(=O)c4ccccc4)CC3)cc(OC)c3c1OCO3)OCO2 (stereo not drawn)
IC50 (K562 [1]): 380 nM
IC50 (K562/A02 [2]): 810 nM
Ratio IC50 [3]: 2.1

SODIUM ORTHOVANAD
Activity (Homo sapiens [10]): 242000 RLU

COC(=O)c1cc(OC)c2c(c1-c1c(C(=O)OC3CCN(CC(=O)OCCCCOc4nonc4S(=O)(=O)c4ccccc4)CC3)cc(OC)c3c1OCO3)OCO2
IC50 (K562 [1]): 68000 nM
IC50 (K562/A02 [2]): 73000 nM
Ratio IC50 [3]: 1.1
Drug metabolism [4]: Metabolite_Notdetected

COC(=O)c1cc(OC)c2c(c1-c1c(C(=O)OC3CCN(CC(=O)OCCOCCOc4no[n+]([O-])c4S(=O)(=O)c4ccccc4)CC3)cc(OC)c3c1OCO3)OCO2
IC50 (K562 [1]): 640 nM
IC50 (K562/A02 [2]): 890 nM
Ratio IC50 [3]: 1.4
Drug metabolism [4]: Metabolite_Detected

COC(=O)c1cc(OC)c2c(c1-c1c(C(=O)OC3CCN(CC(=O)OC(C)CCOc4no[n+]([O-])c4S(=O)(=O)c4ccccc4)CC3)cc(OC)c3c1OCO3)OCO2 (stereo not drawn)
IC50 (K562 [1]): 390 nM
IC50 (K562/A02 [2]): 760 nM
Ratio IC50 [3]: 1.9

COC(=O)c1cc(OC)c2c(c1-c1c(C(=O)OCCN3CCN(CC(=O)OCCOCCOc4no[n+]([O-])c4S(=O)(=O)c4ccccc4)CC3)cc(OC)c3c1OCO3)OCO2
IC50 (K562 [1]): 380 nM
IC50 (K562/A02 [2]): 2300 nM
Ratio IC50 [3]: 6.1

COC(=O)c1cc(OC)c2c(c1-c1c(C(=O)OCCN3CCN(CC(=O)NCCOc4no[n+]([O-])c4S(=O)(=O)c4ccccc4)CC3)cc(OC)c3c1OCO3)OCO2
IC50 (K562 [1]): 550 nM
IC50 (K562/A02 [2]): 3010 nM
Ratio IC50 [3]: 5.5

COc1cccc2c1C(=O)c1c(O)c3c(c(O)c1C2=O)C[C@@](O)(C(=O)CO)C[C@@H]3O[C@H]1C[C@H](N)[C@H](O)[C@H](C)O1.Cl [DOXORUBICIN HYDROCHLORIDE]
IC50 (K562 [1]): 590 nM
IC50 (K562/A02 [2]): 24500 nM
Ratio IC50 [3]: 41.5
Activity (K562/A02 [11]): inactive
Activity (K562/A02 [12]): inactive
inhibition in vivo at 4 mg/kg (K562/A02 [13]): 18.6%
MTD at 72 h [14]: 4 mg/kg

COC(=O)c1cc(OC)c2c(c1-c1c(C(=O)OC3CCN(CC(=O)OCCOc4no[n+]([O-])c4S(=O)(=O)c4ccccc4)CC3)cc(OC)c3c1OCO3)OCO2
IC50 (K562 [1]): 510 nM
IC50 (K562/A02 [2]): 650 nM
Ratio IC50 [3]: 1.3
